Results on two molecules are retold here after ChEMBL document CHEMBL1148902, “A cytotoxic cyclic heptapeptide from the seeds of Annona cherimola” (J Nat Prod, 2004).

In the test the test system is KB. As to the kind of experiment: Cytotoxicity against human KB cells. In kind it is functional, cell-based.

Where a SMILES comes first, the peptide text is derived from it.

For orientation: IC50 means the concentration at which inhibition is half-maximal. High values mean a need for much substance, low ones inhibition by little substance. For the molecule `CC[C@H](C)[C@@H]1NC(=O)[C@H](Cc2c[nH]c3ccccc23)NC(=O)[C@H](C)NC(=O)[C@H](C)NC(=O)CNC(=O)[C@@H]2CCCN2C(=O)[C@@H]2CCCN2C1=O` [CHERIMOLACYCLOPEPTIDE C] (cyclo(AAWIPPG)), the IC50 is 72 nM.

As for `COc1cccc2c1C(=O)c1c(O)c3c(c(O)c1C2=O)C[C@@](O)(C(=O)CO)C[C@@H]3O[C@H]1C[C@H](N)[C@H](O)[C@H](C)O1` [DOXORUBICIN], the IC50 was 20 nM.
